{
  "source": "PubChem BioAssay AID1259246",
  "about": "(Broad Institute, 2017)",
  "note": "Records with an inconclusive call do not appear. Active and inactive are the calls of the source.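 Rule for the calls: active = valid dose-response fit whose half-maximal growth-inhibiting concentration is at or below a set limit above the top tested dose; inconclusive = flat fit with effect between 30 and 70%, or poor fit; inactive = half-maximal concentration above a set limit.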",
  "data": [
    {"test": "antibacterial activity against Clostridioides difficile – 10-point retest, dose response (AID 1259246)", "details": "Clostridioides difficile clinical isolate growth, OD600, 24 h; at 60 µM (top of the series)", "values": [
      {"smiles": "O=C(C[C@@H]1C[C@H]2c3cc(NC(=O)Nc4ccc(F)cc4)ccc3O[C@H]2[C@H](CO)O1)NC1CCCCC1", "activity change, negative = inhibition": "6.83% (inactive)"},
      {"smiles": "C[C@H]1CCCCO[C@H](CN(C)Cc2ccccc2)[C@@H](C)CN([C@@H](C)CO)C(=O)c2cc(NC(=O)Nc3ccc(C(F)(F)F)cc3)ccc2O1", "activity change, negative = inhibition": "3.08% (inactive)"}
    ]},
    {"test": "antibacterial activity against Clostridioides difficile – 10-point retest, dose response (AID 1259246)", "details": "Clostridioides difficile clinical isolate growth, OD600, 24 h; at 120 µM (top of the series)", "values": [
      {"smiles": "C/C=C/c1ccc2c(c1)O[C@H](CN(C)CC1CCOCC1)[C@H](C)CN([C@H](C)CO)S2(=O)=O", "activity change, negative = inhibition": "-5.69% (inactive)"},
      {"smiles": "O=C(C[C@@H]1C[C@@H]2c3cc(NC(=O)Nc4ccc(F)cc4)ccc3O[C@@H]2[C@H](CO)O1)NC1CCCCC1", "activity change, negative = inhibition": "-4.54% (inactive)"},
      {"smiles": "O=S(=O)(NCC[C@H]1CC[C@H](NS(=O)(=O)c2ccccc2Cl)[C@H](CO)O1)c1ccc(Cl)cc1", "activity change, negative = inhibition": "-7.26% (inactive)"},
      {"smiles": "Cc1ccc(S(=O)(=O)N[C@@H]2CC[C@@H](CCNS(=O)(=O)Cc3ccccc3)O[C@H]2CO)cc1", "activity change, negative = inhibition": "-1.85% (inactive)"},
      {"smiles": "C[C@@H]1CN([C@H](C)CO)C(=O)Cc2cc(N(C)C)ccc2O[C@@H]1CN(C)Cc1ccc(-c2ccccc2)cc1", "activity change, negative = inhibition": "22.5% (inactive)"},
      {"smiles": "CO[C@@H]1CN(C)C(=O)c2ccc(NC(=O)c3nc4ccccc4s3)cc2OC[C@@H](C)N(Cc2cccnc2)C[C@H]1C", "activity change, negative = inhibition": "14.9% (inactive)"},
      {"smiles": "C[C@H](CO)N1C[C@H](C)[C@H](CN(C)C(=O)NC2CCCCC2)Oc2c(NC(=O)Nc3ccc(C(F)(F)F)cc3)cccc2C1=O", "activity change, negative = inhibition": "32.2% (inactive)"},
      {"smiles": "CC(C)CC#Cc1ccc2c(c1)O[C@@H](CN(C)CC1CCOCC1)[C@H](C)CN([C@@H](C)CO)S2(=O)=O", "activity change, negative = inhibition": "13.6% (inactive)"},
      {"smiles": "C[C@@H]1CN([C@@H](C)CO)S(=O)(=O)c2ccc(/C=C/c3ccccc3)cc2O[C@H]1CN(C)Cc1cccnc1", "activity change, negative = inhibition": "71.2% (inactive)"},
      {"smiles": "C[C@@H]1CN([C@H](C)CO)C(=O)c2cccc(NC(=O)Nc3ccccc3)c2O[C@@H]1CN(C)Cc1ccc(Oc2ccccc2)cc1", "activity change, negative = inhibition": "32.9% (inactive)"},
      {"smiles": "C[C@H]1CN([C@@H](C)CO)C(=O)Cc2cc(NC(=O)C3CC3)ccc2O[C@H]1CN(C)Cc1ccc(-c2ccccc2)cc1", "activity change, negative = inhibition": "18.3% (inactive)"},
      {"smiles": "CC(C)CC#Cc1ccc2c(c1)O[C@@H](CN(C)Cc1cccnc1)[C@H](C)CN([C@@H](C)CO)S2(=O)=O", "activity change, negative = inhibition": "29.9% (inactive)"},
      {"smiles": "C[C@H]1CN([C@@H](C)CO)C(=O)c2cccc(NC(=O)Nc3ccccc3)c2O[C@@H]1CN(C)Cc1ccc(Oc2ccccc2)cc1", "activity change, negative = inhibition": "27.9% (inactive)"},
      {"smiles": "C[C@@H]1CN([C@@H](C)CO)S(=O)(=O)c2ccc(C#CC3CCCCC3)cc2O[C@@H]1CN(C)Cc1cccnc1", "activity change, negative = inhibition": "13.1% (inactive)"},
      {"smiles": "C[C@@H]1CN([C@H](C)CO)S(=O)(=O)c2ccc(C3=CCCCC3)cc2O[C@H]1CN(C)Cc1ccccc1", "activity change, negative = inhibition": "12.5% (inactive)"},
      {"smiles": "C[C@@H]1CN([C@H](C)CO)C(=O)Cc2cc(NC(=O)C3CC3)ccc2O[C@@H]1CN(C)Cc1ccc(Cl)c(Cl)c1", "activity change, negative = inhibition": "27.9% (inactive)"}
    ]},
    {"test": "antibacterial activity against Clostridioides difficile – 10-point retest, dose response (AID 1259246)", "details": "Clostridioides difficile clinical isolate growth, OD600, 24 h; at 135 µM (top of the series)", "values": [
      {"smiles": "O=C(C[C@@H]1C[C@H]2c3cc(NC(=O)C4CCC4)ccc3O[C@H]2[C@@H](CO)O1)NCc1ccc(Cl)cc1", "activity change, negative = inhibition": "6.13% (inactive)"},
      {"smiles": "CO[C@@H]1CN(C)C(=O)c2cc(NC(=O)c3nc4ccccc4s3)ccc2OC[C@@H](C)N(Cc2ccncc2)C[C@H]1C", "activity change, negative = inhibition": "14.2% (inactive)"},
      {"smiles": "C[C@@H]1CN([C@@H](C)CO)C(=O)c2cc(NC(=O)Nc3cccc4ccccc34)ccc2O[C@@H](C)CCCCO[C@@H]1CN(C)S(=O)(=O)c1ccc(F)cc1", "activity change, negative = inhibition": "17.6% (inactive)"},
      {"smiles": "CO[C@H]1CN(C)C(=O)c2cc(NC(=O)c3nc4ccccc4s3)ccc2OC[C@H](C)NC[C@H]1C", "activity change, negative = inhibition": "-0.247% (inactive)"},
      {"smiles": "C[C@H]1CN([C@@H](C)CO)C(=O)Cc2cc(NC(=O)C3CC3)ccc2O[C@@H]1CN(C)Cc1ccc(Oc2ccccc2)cc1", "activity change, negative = inhibition": "17.9% (inactive)"},
      {"smiles": "CO[C@H]1CN(C)C(=O)c2cc(NC(=O)c3nc4ccccc4s3)ccc2OC[C@H](C)N(Cc2ccncc2)C[C@H]1C", "activity change, negative = inhibition": "20.9% (inactive)"}
    ]}
  ]
}
